# Measured values: patent US9556160B2, “Guanidine compound” (Astellas Pharma Inc., priority 2011, dated 2017)
# Experiments:
# [1] = test system: VAP-1 enzyme (SSAO) activity in rat plasma; assay: Inhibitory effect on rat VAP-1 enzyme (SSAO) activity in rat plasma after oral administration; type: in vivo, Wistar male rats; conditions: rat plasma VAP-1 activity, oral 0.3 mg/kg; for Inhibition Ratio (%) 1 h: 1 h after administration; for Inhibition Ratio (%) 3 h: 3 h after administration; for Inhibition Ratio (%) 6 h: 6 h after administration; for Inhibition Ratio (%) 24 h: 24 h after administration
# Procedure: Eight-week to twelve-week Wistar male rats were fasted for 20 hours, and orally administered with a test drug ([…]). Heparin blood collection from the tail vein was performed immediately before the administration, and at 1 h, 3 h, 6 h, 12 h, or 24 h after the administration. The resulting blood was subjected to centrifugation at 14000 rpm for 5 minutes to separate plasma, and the VAP-1 enzyme activity in the resulting plasma was measured by a radio-enzyme assay method.
# For the radio-enzyme assay method, ^14C-benzylamine which is a synthetic substrate (10 μM) was reacted with the resulting plasma at 37° C., and the resulting metabolite was extracted with a mixture of toluene/ethyl acetate. The radioactivity was measured and taken as a VAP-1 enzyme activity in the plasma. The effect of the test drug was calculated from the inhibitory ratio (%) of the VAP-1 activity after the administration of the test drug relative to the VAP-1 activity in the plasma immediately before the administration.
# [2] = target: human VAP-1 enzyme (SSAO) (Homo sapiens (Human), UniProt Q16853); assay: Inhibitory effect on human VAP-1 enzyme (SSAO) activity, radiochemistry-enzymatic assay with 14C-benzylamine; type: biochemical; conditions: CHO-expressed human VAP-1, 14C-benzylamine 1×10^−5 mol/L
# Chain of human VAP-1 enzyme (SSAO) (Q16853 whole entry): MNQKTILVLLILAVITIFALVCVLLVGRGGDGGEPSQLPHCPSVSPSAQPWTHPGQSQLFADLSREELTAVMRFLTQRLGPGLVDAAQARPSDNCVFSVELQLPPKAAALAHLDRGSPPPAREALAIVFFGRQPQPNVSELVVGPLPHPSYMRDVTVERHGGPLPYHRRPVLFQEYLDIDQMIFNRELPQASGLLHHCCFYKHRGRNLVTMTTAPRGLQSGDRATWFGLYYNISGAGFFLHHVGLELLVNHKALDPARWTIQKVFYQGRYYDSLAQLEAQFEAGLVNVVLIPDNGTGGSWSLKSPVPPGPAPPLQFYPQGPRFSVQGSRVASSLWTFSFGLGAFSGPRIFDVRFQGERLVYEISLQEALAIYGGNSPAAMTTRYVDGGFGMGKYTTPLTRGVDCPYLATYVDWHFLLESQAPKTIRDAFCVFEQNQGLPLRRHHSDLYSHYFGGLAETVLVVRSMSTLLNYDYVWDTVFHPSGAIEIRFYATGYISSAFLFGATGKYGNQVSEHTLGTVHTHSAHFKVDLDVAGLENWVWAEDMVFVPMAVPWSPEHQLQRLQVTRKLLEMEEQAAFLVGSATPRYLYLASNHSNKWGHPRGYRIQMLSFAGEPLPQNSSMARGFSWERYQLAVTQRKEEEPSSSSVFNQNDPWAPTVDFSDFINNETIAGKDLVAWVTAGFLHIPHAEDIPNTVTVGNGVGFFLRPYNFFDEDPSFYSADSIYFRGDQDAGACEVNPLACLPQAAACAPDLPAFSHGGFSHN
# Procedure: (§1) After homogenizing CHO (Chinese Hamster Ovary) cells stably expressing a human VAP-1 enzyme (SSAO) in a 50 mM phosphate buffer containing 1% NP-40, an enzyme suspension was obtained by taking the supernatant obtained by centrifugation. The enzyme suspension was preincubated with the compound of the present invention in a 96-well microplate at room temperature for 30 minutes. Subsequently, the enzyme suspension was incubated with ^14C-benzylamine (a final concentration of 1×10^−5 mol/L) to a final volume of […] at 37° C. for 1 hour. The enzymatic reaction was stopped by the addition of 2 mol/L (50 pt) of citric acid.
# [3] = test system: albuminuria in STZ-treated rats; assay: Effect on albuminuria in rats with diabetes mellitus (STZ); type: in vivo, SD rats; conditions: oral 0.3 mg/kg once daily, after 4 weeks; for amount of urinary albumin excretion: 24-hour urine
# Procedure: Seven-to eight-week SD rats (having weights up to 200 to 250 g during fasting) were used and fasted for 20 hours, and then intraperitoneally administered with 60 mg/ml/kg of streptozotocin (STZ) prepared with a 2 mmol/l citric acid buffer (pH 4.5). At the same time, the control rats were injected with the same amount of a 2 mmol/l citric acid buffer (pH 4.5).
# The test substance was given daily for 4 weeks after the treatment with STZ. After 4 weeks of the treatment with the test substance, 24-hour urine collection was performed using metabolic cages.
# rat VAP-1 enzyme (SSAO) = rat VAP-1 enzyme (SSAO) (Rattus norvegicus (Rat), UniProt O08590); assay: Inhibitory effect on rat VAP-1 enzyme (SSAO) activity, radiochemistry-enzymatic assay with 14C-benzylamine; type: biochemical; conditions: CHO-expressed rat VAP-1, 14C-benzylamine 1×10^−5 mol/L
# Chain of rat VAP-1 enzyme (SSAO) (O08590 whole entry): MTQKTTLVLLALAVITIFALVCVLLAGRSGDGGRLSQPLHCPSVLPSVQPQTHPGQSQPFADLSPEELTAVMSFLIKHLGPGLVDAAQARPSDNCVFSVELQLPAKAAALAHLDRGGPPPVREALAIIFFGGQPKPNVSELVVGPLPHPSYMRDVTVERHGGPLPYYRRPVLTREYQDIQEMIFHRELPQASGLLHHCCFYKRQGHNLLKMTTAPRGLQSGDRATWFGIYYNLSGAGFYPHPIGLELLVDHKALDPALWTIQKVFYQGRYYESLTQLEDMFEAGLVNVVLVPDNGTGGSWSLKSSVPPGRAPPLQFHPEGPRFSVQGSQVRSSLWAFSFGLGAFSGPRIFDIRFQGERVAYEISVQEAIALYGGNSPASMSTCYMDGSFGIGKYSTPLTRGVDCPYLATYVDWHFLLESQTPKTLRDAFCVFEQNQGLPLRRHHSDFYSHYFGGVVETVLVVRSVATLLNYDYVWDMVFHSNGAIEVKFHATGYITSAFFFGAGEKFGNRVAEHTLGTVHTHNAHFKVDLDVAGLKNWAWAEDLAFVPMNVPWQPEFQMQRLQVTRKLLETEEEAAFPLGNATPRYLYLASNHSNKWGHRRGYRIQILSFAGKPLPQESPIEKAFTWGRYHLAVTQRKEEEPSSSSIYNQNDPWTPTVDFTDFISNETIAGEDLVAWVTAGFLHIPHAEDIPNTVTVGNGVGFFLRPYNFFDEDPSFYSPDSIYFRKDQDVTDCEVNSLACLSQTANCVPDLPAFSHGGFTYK
# Procedure: as §1, with “rat” for “human”, “μL)” for “pt)”, “acid. The oxidation products were extracted directly in a 200 μL toluene scintillator, and the radioactivity was measured with a scintillation spectrometer.” for “acid.”
SMILES,IC50 [2] [nM],IC50 (rat VAP-1 enzyme (SSAO)) [nM],Inhibition Ratio (%) 1 h [1] [%],Inhibition Ratio (%) 3 h [1] [%],Inhibition Ratio (%) 6 h [1] [%],Inhibition Ratio (%) 24 h [1] [%],urinary albumin excretion relative to that of the control group [3] [times],amount of urinary albumin excretion [3] [mg/gCr]
Cn1cc(OC2CN(c3cccc(COC(=O)NC(=N)N)c3F)C2)ccc1=O [Example 557],11,1.6,53,71,56,22,2.3,105
COCC(=O)N1CCC(C2CN(c3cccc(COC(=O)NC(=N)N)c3F)C2)CC1 [Example 562],14,1.4,79,81,78,37,,
COCCC(=O)N1CCC(C2CN(c3cccc(COC(=O)NC(=N)N)c3F)C2)CC1 [Example 563],20,1.5,69,77,70,43,,
CS(=O)(=O)N1CCC(C2CN(c3cccc(COC(=O)NC(=N)N)c3F)C2)CC1 [Example 564],19,1.5,89,90,85,59,,
COCCOc1cc(N2CCN(c3cccc(COC(=O)NC(=N)N)c3F)CC2)ccn1 [Example 565],19,2.5,77,83,71,47,,

# Stronger by IC50 [2], values ahead:
IC50 [2] [nM],IC50 (rat VAP-1 enzyme (SSAO)) [nM],SMILES,Inhibition Ratio (%) 1 h [1] [%],Inhibition Ratio (%) 3 h [1] [%],Inhibition Ratio (%) 6 h [1] [%],Inhibition Ratio (%) 24 h [1] [%],urinary albumin excretion relative to that of the control group [3] [times],amount of urinary albumin excretion [3] [mg/gCr]
9.6,1.6,N=C(N)NC(=O)OCc1cccc(N2CC(C3CCN(C(=O)C4CC4)CC3)C2)c1F [Example 561],91,92,85,64,,
6.3,1.2,COCc1cc(N2CCN(c3cccc(COC(=O)NC(=N)N)c3F)CC2)ccn1 [Example 566],75,74,70,38,,
5.2,2.2,CC(=O)N1CCC(COc2ncc(-c3cccc(COC(=O)NC(=N)N)c3F)cn2)CC1 [Example 11],64,70,63,12,1.5,103
